For experiment [1] the following is noted: in vivo; cited from earlier work.
Experiment [2] relates to central muscarinic agonist site. The experiment is described as follows: Receptor [^3 H]Cis-methyldioxalane Assay (RCMD), rat cerebral cortex. Type of experiment: binding.
Experiment [3] has as its system central muscarinic antagonist site. Format: binding. The settings on record: rat cerebral cortex, [3H]quinuclidinyl benzilate.
For experiment [4] the following is noted: aged humans and nonhuman primates with decreased cognition; cited from earlier work.

Each structure is given as a SMILES string.

Consider 5 molecules from patent US5200419A, “Substituted tetrazoles and derivatives thereof acting at muscarinic receptors” (Warner-Lambert Company, priority 1990, dated 1993).

Regarding `Nc1ccncc1N` [3,4-diaminopyridine], the age-related cognitive deficits result in experiment [1] is “ameliorate age-related cognitive deficits”.
Turning to `c1nnnn1C1CN2CCC1CC2` (centres unmarked) [Example 1, 3-(1H-Tetrazol-1-yl)-1-azabicyclo[2.2.2]octane], the “RCMD (% Inhibition at 0.1 μM)” value in experiment [2] came to 0%. The “RQNB (% Inhibition at 1 μM)” value in experiment [3] is on record as 7%.
For the molecule `Cc1nnnn1C1CN2CCC1CC2` (centres unmarked) [Example 1a, 3-(5-Methyl-1H-tetrazol-1-yl)-1-azabicyclo[2.2.2]octane], the “RCMD (% Inhibition at 0.1 μM)” value in experiment [2] came out at 8%. The “RQNB (% Inhibition at 1 μM)” value in experiment [3] is reported as 19%.
Regarding `CCc1nnnn1C1CN2CCC1CC2` (centres unmarked) [Example 1b, 3-(5-Ethyl-1H-tetrazol-1-yl)-1-azabicyclo[2.2.2]-octane], in experiment [2], the “RCMD (% Inhibition at 0.1 μM)” value worked out at 15%. The “RQNB (% Inhibition at 1 μM)” value in experiment [3] was found to be 11%.
Take `CNC(=O)Oc1ccc2c(c1)[C@]1(C)CCN(C)[C@@H]1N2C` [physostigmine]: the memory result in experiment [4] is listed as “improved memory”.
